From patent US20120283228A1, “2alpha-Methyl and 2beta-Methyl Analogs of 19,26-Dinor-1alpha,25-Dihydroxyvitamin D3 and Their Uses” (WISCONSIN ALUMNI RESEARCH FOUNDATION, priority 2011, published 2012) come the findings set out here.

What is called pEC50 is −log10 of the EC50, conventionally taken in molar units. For orientation: pKi means the Ki on a negative log10 scale, so that one unit is a factor of ten.

pEC50, pKi: −log10 of the molar value. Entries after “also recorded” stand apart in the source; their conditions may differ.

In assay [1] the test system is Human promyelocytic leukemia (HL60) cells. Put plainly: HL-60 differentiation (nitro blue tetrazolium reduction). The class given is cell-based. The conditions noted are these: for pEC50: HL-60 cells, read-out: EC50, ability to promote HL-60 cell differentiation. How it is done: Serial dilutions were prepared so that a range of drug concentrations could be tested without changing the final concentration of ethanol (≦0.2%) present in the cell cultures.
Human promyelocytic leukemia (HL60) cells were grown in RPMI-1640 medium containing 10% fetal bovine serus. The cells were incubated at 37° C. in the presence of 5% CO2.
HL60 cells were plated at 1.2×10^5 cells/ml. Eighteen hours after plating, cells in duplicate were treated with drug. Four days later, the cells were harvested and a nitro blue tetrazolium reduction assay was performed (Collins et al., 1979; J. Ex. Med. 149:969-974). The percentage of differentiated cells was determined by counting a total of 200 cells and recording the number that contained intracellular black-blue formazan deposits Verification of differentiation to monocytic cells was determined by measuring phagocytic activity (data not shown).

For assay [2], the target named is T1, full-length recombinant rat vitamin D receptor (Rattus norvegicus, UniProt P13053).
T1 sequence (P13053 1-423): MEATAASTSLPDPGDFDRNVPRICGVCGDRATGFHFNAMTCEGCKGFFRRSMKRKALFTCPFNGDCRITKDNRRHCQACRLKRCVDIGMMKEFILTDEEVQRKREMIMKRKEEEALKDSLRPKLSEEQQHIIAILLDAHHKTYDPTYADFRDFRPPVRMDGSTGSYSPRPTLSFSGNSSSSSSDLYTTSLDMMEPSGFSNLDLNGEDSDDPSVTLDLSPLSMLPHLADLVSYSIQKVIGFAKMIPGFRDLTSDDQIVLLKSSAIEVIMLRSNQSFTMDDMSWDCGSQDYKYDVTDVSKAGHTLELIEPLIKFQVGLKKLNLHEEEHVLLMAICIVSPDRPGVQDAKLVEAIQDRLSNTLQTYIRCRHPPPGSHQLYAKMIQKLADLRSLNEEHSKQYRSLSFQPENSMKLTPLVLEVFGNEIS
Put plainly: biochemical. The conditions noted are these: ability to compete with [3H]-1,25(OH)2D3 for binding to the vitamin D receptor, full-length recombinant rat VDR.
Procedure: (§2) Full-length recombinant rat receptor was expressed in E. coli BL21 (DE3) Codon Plus RIL cells and purified to homogeneity using two different column chromatography systems. The first system was a nickel affinity resin that utilizes the C-terminal histidine tag on this protein. The protein that was eluted from this resin was further purified using ion exchange chromatography (S-Sepharose Fast Flow). Aliquots of the purified protein were quick frozen in liquid nitrogen and stored at −80° C. until use. For use in binding assays, the protein was diluted in TEDK50 (50 mM Tris, 1.5 mM EDTA, pH 7.4, 5 mM DTT, 150 mM KCl) with 0.1% Chaps detergent. The receptor protein and ligand concentration was optimized such that no more than 20% of the added radiolabeled ligand as bound to the receptor.
(§3) Radiolabeled and unlabeled ligands were added to 100 mcl of the diluted protein at a final ethanol concentration of ≦10%; mixed and incubated overnight on ice to reach binding equilibrium. The following day, 100 mcl of hydroxylapaptite slurry (50%) was added to each tube and mixed at 10-minute intervals for 30 minutes. The hydroxylapaptite was collected by centrifugation and then washed three times with Tris-EDTA buffer (50 mM Tris, 1.5 mM EDTA, pH 7.4) containing 0.5% Titron X-100. After the final wash, the pellets were transferred to scintillation vials containing 4 ml of Biosafe II scintillation cocktail, mixed and placed in a scintillation counter. Total binding was determined from the tubes containing only radiolabeled ligand.

The test system of assay [3] is 24-hydroxylase (24Ohase) gene promoter. The assay can be described thus: In vitro transcription assay in ROS 17/2.8 (bone) cells, luciferase reporter. The class given is cell-based. How it is done: Transcription activity was measured in ROS 17/2.8 (bone) cells that were stably transfected with a 24-hydroxylase (24Ohase) gene promoter upstream of a luciferase reporter gene (Arbour et al., 1998). Cells were given a range of doses. Sixteen hours after dosing the cells were harvested and luciferase activities were measured using a luminometer.
RLU=relative luciferase units.
Background: A reporter such as luciferase makes a cellular process visible.

The subject of assay [4] is vitamin D-deficient rats. The assay can be described thus: Intestinal calcium transport (everted gut sac method). The class given is in vivo, Sprague-Dawley rats. The procedure:
(§1) Male, weanling Sprague-Dawley rats were placed on Diet 11 (0.47% Ca) diet +AEK for one week followed by Diet 11 (0.02% Ca) +AEK for 3 weeks. The rats were then switched to a diet containing 0.47% Ca for one week followed by two, weeks on a diet containing 0.02% Ca. Dose administration began during the last week on 0.02% calcium diet. Four consecutive ip doses were given approximately 24 hours apart. Twenty-four hours after the last dose, blood was collected from the severed neck and the concentration of serum calcium determined as a measure of bone calcium mobilization. The first 10 cm of the intestine was also collected for intestinal calcium transport analysis using the everted gut sac method.

The test system of assay [5] is vitamin D-deficient rats. Put plainly: Bone calcium mobilization (serum calcium). The class given is in vivo, Sprague-Dawley rats. Conditions: rats on low calcium diet (0.02%); for mobilization of bone calcium at 7,020 pmol/day: 7,020 pmol/day for 4 consecutive days; for activity in mobilizing calcium from bone / serum calcium levels: all dosages tested; for times less potent than 1,25(OH)2D3 in bone (bone calcium mobilization): 4 ip doses. The procedure: as §1

Assay [6] concerns the target T1, full-length recombinant rat vitamin D receptor.
Procedure: as §2, §3
The mark [7] stands for this setting: compared with 1,25(OH)2D3 at 780 pmol/day.
Setting [8] is: rats on low calcium diet (0.02%), 4 ip doses.

For `CC(O)CCCC(C)C1CCC2C(=CC=C3CC(O)C(C)C(O)C3)CCCC21C` (single isomer, unassigned) [NC-2], in assay [1], the “HL-60 differentiation potency as compared to 1,25(OH)2D3” value is on record as “little difference”, the pEC50 is 8.30 and the “times more potent than 1,25(OH)2D3 on HL-60 differentiation” value is on record as 4 times. Besides, the pKi in assay [2] is 9.70. In assay [3], the “transcriptional activity in bone cells as compared to 1α,25-dihydroxyvitamin D3” value is listed as “slightly less transcriptional activity”. The negative logarithm of the EC50 (pEC50) in assay [3] (ROS 17/2.8 cells, 24-hydroxylase promoter-luciferase, read-out: EC50, transcriptional activity in bone cells) is 9.22. In addition, the “logs less transcriptional activity than 1α,25-dihydroxyvitamin D3 in bone cells” value in assay [3] (less than 1,25(OH)2D3) was “about one-half”. The “intestinal calcium transport at 7,020 pmol/day” value in the assay with vitamin D-deficient rats [4] (setting [7]) is on record as “some intestinal calcium transport activity, but still not to the same extent as 1,25(OH)2D3”. For the same compound, the “intestinal calcium transport at 35,100 pmol/day” value in the assay on vitamin D-deficient rats [4] (35,100 pmol/day, compared with 1,25(OH)2D3 at 780 pmol/day) was “some intestinal calcium transport activity, but still not to the same extent as 1,25(OH)2D3”. Besides, the “logs less potent than 1,25(OH)2D3 in the intestine” value in the assay with vitamin D-deficient rats [4] (setting [8]) is “approximately 5 log”. In addition, in the assay on vitamin D-deficient rats [5], the “mobilization of bone calcium at 7,020 pmol/day” value was “did not result, in mobilization of bone calcium”; the “activity in mobilizing calcium from bone / serum calcium levels” value is given as “little, if any, activity”; the “times less potent than 1,25(OH)2D3 in bone (bone calcium mobilization)” value is reported as “more than 50 times”. In addition, in the assay with vitamin D-deficient rats [5] (35,100 pmol/day for 4 consecutive days), the “mobilization of bone calcium at 35,100 pmol/day” value is “without any substantial effect”. For the same compound, the “binding to the receptor as compared to 1,25(OH)2D3” value in assay [6] is recorded as “bound equally well; also recorded: equivalent”.

As to `CC(O)CCCC(C)C1CCC2C(=CC=C3CC(O)C(C)C(O)C3)CCCC21C` (single isomer, unassigned) [LR-2], in assay [1], the pEC50 was 10.00 and the “times more potent than 1,25(OH)2D3 on HL-60 differentiation” value was determined as 10 times. The pKi in assay [2] was 10.10. Besides, in assay [3] (more than 1,25(OH)2D3), the “times more transcriptional activity than 1α,25-dihydroxyvitamin D3 in bone cells” value was 10 times. Also, the “intestinal calcium transport at 7,020 pmol/day” value in the assay on vitamin D-deficient rats [4] (setting [7]) is on record as “some intestinal calcium transport activity, but still not to the same extent as 1,25(OH)2D3”. Further, in the assay with vitamin D-deficient rats [4] (setting [8]), the “logs less potent than 1,25(OH)2D3 in the intestine” value is “approximately one and one”; the “times less potent than 1,25(OH)2D3 in stimulating calcium transport in the gut” value is recorded as “about 10 times”. In addition, in the assay with vitamin D-deficient rats [5], the “mobilization of bone calcium at 7,020 pmol/day” value is given as “did not result in mobilization of bone calcium”; the “activity in mobilizing calcium from bone / serum calcium levels” value is “little, if any, activity”; the “times less potent than 1,25(OH)2D3 in bone (bone calcium mobilization)” value is “more than 30 times”. Further, the “mobilization of bone calcium at 21,060 pmol/day” value in the assay on vitamin D-deficient rats [5] (21,060 pmol/day for 4 consecutive days) is “without any substantial effect”. In assay [6], the “binding to the receptor as compared to 1,25(OH)2D3” value is “bound equally well; also recorded: equivalent”.
